From patent US20050232933A1, “CMV-IE1 peptides and method of use” (priority 2003, published 2005)
Read-outs that look alike come from different tables or passages of the source.

Columns and labels:
[1] = tested on: CD8 human cells; details: cited from earlier work; for Stimulatory grade, B: Khan et al. 2002 (ELISPOT): HLA A*0201
[2] = tested on: CD8 human cells; details: HLA A*0201; (pN) = peptide number in the source; cited from earlier work
[3] = biological target: T1, HLA A*0201 molecule on T2 cells (Homo sapiens, UniProt P04439, D140Y/D185E/D98H/E176V/E277Q/G131W/G231S/I119V/I121R/I166T/I218V/L300P/L318F/N151K/N90K/P208A/P217A/Q86G/Q94H/R138H/R169H/T345S); format: binding
T1 construct: host or cells: T2 cells
Description: T2 cells, ATCC accession no. CRL-1992, are defective for endogenous class I presentation, but peptide binding to the MHC molecule stabilizes its expression on the cell surface. The stabilized MHC molecule can be detected by flow cytometry with a monoclonal antibody to the HLA A*0201 molecule. T2 cells express HLA A*0201 but not the HLA DR and are class II MHC antigen negative. […] A293 cells are human embryonic kidney cells. A293-IE1 is a stably transfected human kidney cell line endogenously expressing the CMV-IE1 protein. All cells used in experiments were mycoplasma-free and were maintained in RPMI-1640 supplemented with 10% FBS, penicillin-streptomycin and 2 mM glutamine.
T2 cells are defective for endogenous class I presentation but the presence of peptide binding to the MHC molecule will stabilize its expression on the cell surface. The stabilized MHC molecule can be detected by flow cytometry using a monoclonal antibody to the HLA A-A*0201 molecule. Peptide sequences were selected using two algorithms for HLA peptide predicted motifs publicly available on the internet ([…] (Rammensee et al., Immunogenetics 50:213-219, 1999) and BIMAS).
The peptides were assayed on T2 cells for their ability to bind and stabilize the A2 molecules on the cell surface according to methods described in Gricks et al., Cancer Res. 61:5145-5152, 2001, with modifications. […] The level of stabilized HLA-A2 on the surface of the T2 cells was determined according to known methods using monoclonal antibody BB7.2, which specifically recognizes HLA A*0201 as described in BenMohamed et al., Hum. Immunol. 61:764-779, 2000 and Parham et al., Hum. Immunol. 3:277-299, 1981 and a FITC-labeled goat anti-mouse F(ab′)2. Fluorescence was detected with a FACSCalibur™ flowcytometer. Numbers in the peak channel were compared to control T2 cells that contained HLA mismatch B7 peptide or no peptide.
The results were expressed as fold increased fluorescence compared to the mean of no peptide and HLA mismatch B7 peptide.

[4] = tested on: CD8 human cells; assay: Summary of stimulatory CMV IE1 HLA A*0201 restricted peptides, present report (Table I, A); format: cell-based
Description: These mutations may contribute to the low incidence of response to individual IE1 peptides. The locations of putative mutations are underlined. See Frankenberg et al., Virology 295: 208-216, 2002. Typically, the mutations that would most dramatically affect the binding of an epitope into the MHC molecule are situated at the anchor site, amino acid positions p2 and p9 of a peptide. See Falk et al., Semin. Immunol. 15:81-94, 1993; Zaia et al., J. Virol. 75:2472-2474, 2001. The only peptide showing a p2-p9 unstable mutation site is IE1-315, first described by Retiere (J. Virol. 74:3948-3952, 2000) using a TNF release assay. […] See Khan et al., J. Infect. Dis. 185:1025-1034, 2002. However IE1-316, which contains possible mutations at site p1 and p8, was more frequently recognized in this same study (6 out of 18) in an IFN-γ elispot assay. IE1-297, possibly mutated at p1 and p5, is a strong candidate for CMV immune recognition as well, since 3 of 4 patient PBLs responded in an ICC (intracellular cytokine) assay. Therefore, despite the presence of point mutation sites in IE1 epitopes, provided the anchor sites are intact, IE1-297 and IE1-316 peptides are presented by the MHC molecule after immunization with or exposure to CMV in HLA A*0201 subjects. In summary, IE1-297, IE1-316 and IE1-256 are peptides that stimulate CD8 human cells (Table I).

[5] = tested on: CD8 cells; assay: Intracellular cytokine (ICC) IFN-γ assay, fresh blood from CMV seropositive stem cell transplantation subjects; format: cell-based, human
Experimental: Having identified IE1-297 peptide as an important epitope in the process of CTL response to CMV-IE1 immunization in A2 transgenic mice, this peptide was tested to determine if it was recognized by CD8 cells from CMV seropositive human subjects. Fresh whole blood samples were collected from four individuals susceptible to CMV reactivation 40, 120, 150 and 180 days after stem cell transplantation. Frozen white blood cells from the human subjects were stimulated for 6 hours with 100 μM IE1-297, pp65(p495) or HIV peptide (negative control) and PHA (positive control). The cells then were stained to detect CD8 and IFN-γ production. Four patient samples were analyzed by cytokine flow cytometry.

[6] = tested on: CD8+ peripheral blood lymphocytes; assay: ICC/IFN-γ assay, cryopreserved PBL of HLA-A2 HCT subjects; details: CMV reactivation
Experimental: Five CMV seropositive HLA A2 human subjects showing CMV reactivation within 100 days post hematopoietic cell transplantation (HCT) and 6 CMV seropositive subjects without CMV reactivation were followed at days 40, 90, 120, 150, 180 and 360 post HCT. The intracellular IFN-γ response (ICC) to CMVpp65p495-503, CMV-IE1-256, IE1-297 and IE1-316 and the CD8 MHC/peptide binding (tetramer assay) using CMVpp65p495-503, IE1-297 and IE1-316 were analyzed in two groups.
Eleven HLA A*0201 HCT recipients, at risk for CMV infection because of donor and/or recipient CMV-seropositivity, were enrolled in this study. The subjects included related sibling donors and recipients of allogeneic HCT for hematologic malignancies as well as HCT recipients of matched unrelated donor (MUD).
Peripheral blood mononuclear cells (PBMC) from heparin-treated whole blood were isolated using Histopaque™-1077 density gradients, washed with 1× phosphate-buffered saline (PBS) and cryopreserved in aliquots of 3×10^6 to 5×10^6 cells/mL in 90% fetal bovine serum (FBS) and 10% dimethylsulfoxide. The plasma was collected by centrifugation, filtered through 0.45 μm Acrodisc™ filters and stored at −20° C. until DNA extraction.
Donor samples (except for MUD subjects) were drawn before administration of granulocyte-colony stimulating factor (G-CSF) and later at the time of harvest. Recipient blood samples were collected at day 40, 90, 120, 150, 180 and 360 post-transplant for ICC and tetramer binding assays, and the CMV reactivation was monitored starting at day 21 post-HCT and twice weekly until day 100 using a shell vial assay and quantitative PCR.
To evaluate the immune reactivity to CMV in HLA-A2 subjects, cryopreserved peripheral blood lymphocytes (PBL) from the subjects were stimulated with peptides derived from CMV-pp65 and CMV-IE1 proteins. […] The positive stimulation control contained phytohemagglutinin (PHA) and the negative control contained HIV peptide.
After 1 hour incubation at 37° C. in 5% CO2, 1 μL (stock 5 mg/mL) of Brefeldin A, a cytokine secretion inhibitor, was added to the cells and further incubated overnight. Samples were then washed with 1×PBS and 0.5% bovine serum albumin and stained for 20 minutes in the dark with 5 μL of anti-CD8 antibody conjugated to streptavidin-phycoerythrin (CD8-PE). The cells were fixed and permeabilized for 20 minutes using the Cytofix/Cytoperm Kit™ (Pharmingen™) and stained for 30 minutes at 4° C. in the dark with 1 μL of anti-IFN-γ conjugated with streptavidin-allophycocyanin (APC).
After purification, the peptides were dissolved in 10% DMSO/water to a concentration of 5 mM and used at a final concentration of 25 μM for T cell stimulation. […] The latter two peptides served as a positive and negative control, respectively.
For FACS, patient cell samples were washed twice with 1× Cytofix™ Wash Solution for analysis by fluorescence-activated cell sorting using a FACScalibur™ instrument. The lymphocytes were gated based on forward and side scatter. A minimum of 50,000 events were analyzed per sample. The reported data are the values obtained after subtraction of background levels acquired with HIV peptide stimulation (which ranged from 0.0% to 0.5%).

[7] = T2 cells, 100 μM peptide, 18 hours
[8] = fluorescence compared to the mean of no peptide and HLA mismatch B7 peptide, 100 μM peptide

In the case of “ILGADPLRV (listed as Human cytomegalovirus) [IE1-355]”, the “Stimulatory grade, B: Khan et al. 2002 (ELISPOT)” value (shortened to “Stimulatory grade, B”) [1] is given as “neg” and the “Stimulatory grade, C: Frankenberg et al. 2002 (IVS4)” value (“Stimulatory grade, C” for short) [2] is given as “(p10) poor”.
In the case of “LLSEFCRV (LLSEFCRVL; listed as Human cytomegalovirus) [IE1-304]”, the peak channel [3, 7] is reported as 433, the “Fold Increase” value [3, 8] is reported as 1.8 fold and the “Stimulatory grade, A: Present Report” value [4] is reported as “neg”. For the same substance, the “Stimulatory grade, B” value [1] was “neg” and the “Stimulatory grade, C” value [2] was “(p4) neg”.
For “RPHERNGFTVL (listed as Human cytomegalovirus) [CMVB7-265]”, the peak channel [3, 7] was 261 and the “Fold Increase” value [3, 8] was 1 fold.
For “SLLSEFCRV (listed as Human cytomegalovirus) [IE1-303]”, the “Stimulatory grade, B” value [1] is given as “neg” and the “Stimulatory grade, C” value [2] is given as “(p9) poor”.
With TPRVTGGGAM [CMVB7-417] the “Fold Increase” value [3] was 1 fold and the peak channel [3] was 232.
In the case of “VLAELVKQI (listed as Human cytomegalovirus) [IE1-81]”, the peak channel [3, 7] is reported as 495, the “Fold Increase” value [3, 8] is reported as 2 fold and the “Stimulatory grade, A: Present Report” value [4] is reported as “neg”. For the same substance, the “Stimulatory grade, B” value [1] was “neg” and the “Stimulatory grade, C” value [2] was “(p2) neg”.
In the case of “YVLEETSVM (listed as Human cytomegalovirus) [IE1-315]”, the “subjects recognizing the peptide in IFN-γ elispot” value ([1]; out of 18 subjects, Khan et al.) is listed as “one subject out of 18”.
In the case of phytohemagglutinin [PHA], the “% CD8+/IFN-γ” value ([5]; Patient No. 70, 150 days post-transplant) is reported as <33.15%, the “% CD8+/IFN-γ” value ([5]; Patient No. 70, 180 days post-transplant) is reported as 19.2% and the “% CD8+/IFN-γ” value ([5]; Patient No. 93, 120 days post-transplant) is reported as 37.6%. For the same substance, the “% CD8+/IFN-γ” value ([5]; Patient No. 100, 40 days post-transplant) was 2.09%, the “% CD8+/IFN-γ+ after peptide stimulation” value ([6]; Subj. 54, Day 40 post-HCT) was 0.54% and the “% CD8+/IFN-γ+ after peptide stimulation” value ([6]; Subj. 54, Day 90 post-HCT) was 5.34%. For the same substance, the “% CD8+/IFN-γ+ after peptide stimulation” value ([6]; Subj. 54, Day 150 post-HCT) was 1.78%, the “% CD8+/IFN-γ+ after peptide stimulation” value ([6]; Subj. 54, Day 180 post-HCT) was 4.27% and the “% CD8+/IFN-γ+ after peptide stimulation” value ([6]; Subj. 54, Day 360 post-HCT) was 6.91%. The “% CD8+/IFN-γ+ after peptide stimulation” value ([6]; Subj. 70(D) donor, postG) was 0.63%, the “% CD8+/IFN-γ+ after peptide stimulation” value ([6]; Subj. 70(D) donor, preG) was 0.24% and the “% CD8+/IFN-γ+ after peptide stimulation” value ([6]; Subj. 70, Day 40 post-HCT) was 0.64%. The “% CD8+/IFN-γ+ after peptide stimulation” value ([6]; Subj. 70, Day 90 post-HCT) was 5.09%, the “% CD8+/IFN-γ+ after peptide stimulation” value ([6]; Subj. 70, Day 120 post-HCT) was 4.01% and the “% CD8+/IFN-γ+ after peptide stimulation” value ([6]; Subj. 70, Day 150 post-HCT) was 2.44%. The “% CD8+/IFN-γ+ after peptide stimulation” value ([6]; Subj. 70, Day 180 post-HCT) was 2.88%, the “% CD8+/IFN-γ+ after peptide stimulation” value ([6]; Subj. 70, Day 360 post-HCT) was 3.5% and the “% CD8+/IFN-γ+ after peptide stimulation” value ([6]; Subj. 93(D) donor, postG) was 6.08%. For the same substance, the “% CD8+/IFN-γ+ after peptide stimulation” value ([6]; Subj. 93(D) donor, preG) was 2.08%, the “% CD8+/IFN-γ+ after peptide stimulation” value ([6]; Subj. 93, Day 40 post-HCT) was 6.32% and the “% CD8+/IFN-γ+ after peptide stimulation” value ([6]; Subj. 93, Day 120 post-HCT) was 12.46%. For the same substance, the “% CD8+/IFN-γ+ after peptide stimulation” value ([6]; Subj. 93, Day 150 post-HCT) was 21.01%, the “% CD8+/IFN-γ+ after peptide stimulation” value ([6]; Subj. 93, Day 360 post-HCT) was 16.5% and the “% CD8+/IFN-γ+ after peptide stimulation” value ([6]; Subj. 94, Day 40 post-HCT) was 23.17%. For the same substance, the “% CD8+/IFN-γ+ after peptide stimulation” value ([6]; Subj. 94, Day 90 post-HCT) was 21.58%, the “% CD8+/IFN-γ+ after peptide stimulation” value ([6]; Subj. 94, Day 120 post-HCT) was 14.53% and the “% CD8+/IFN-γ+ after peptide stimulation” value ([6]; Subj. 94, Day 150 post-HCT) was 15.03%. The “% CD8+/IFN-γ+ after peptide stimulation” value ([6]; Subj. 94, Day 180 post-HCT) was 29.1%, the “% CD8+/IFN-γ+ after peptide stimulation” value ([6]; Subj. 94, Day 360 post-HCT) was 20.21% and the “% CD8+/IFN-γ+ after peptide stimulation” value ([6]; Subj. 105(D) donor, postG) was 5.3%. The “% CD8+/IFN-γ+ after peptide stimulation” value ([6]; Subj. 105, Day 40 post-HCT) was 11.56%, the “% CD8+/IFN-γ+ after peptide stimulation” value ([6]; Subj. 105, Day 90 post-HCT) was 40.76% and the “% CD8+/IFN-γ+ after peptide stimulation” value ([6]; Subj. 105, Day 120 post-HCT) was 29.38%. The “% CD8+/IFN-γ+ after peptide stimulation” value ([6]; Subj. 105, Day 150 post-HCT) was 26.14%.
